The text below walks through data of patent publication US20210077420A1, “Methods of Treatment of Gout” (priority 2017, published 2021).

What all share (assay type): physicochemical
Series [1] in a line: Solubility enhancement of MSU crystals in aqueous NaCl solution (Example 1). The settings on record: 16 h; for Concentration of urate: 2.5 mL enhancer + 2.5 mL NaCl solution (8.2 g/L), about 8 mg MSU, 25 °C, mixes equal portions by volume, control 0.043; for % vs control: 2.5 mL enhancer + 2.5 mL NaCl solution, control (water only) = 100%. The procedure: A NaCl solution was prepared by dissolving 8.2 g of NaCl in 1 L of deionised water. Approximately 8 mg of monosodium urate crystals was then suspended in 2.5 mL of the NaCl solution. A 2.5 mL amount of a solubility enhancer was then added to the suspension of monosodium urate crystals. In the case of the solubility enhancer being a mix of components, equal portions by volume of each component was added. This was then mixed for about 16 hours on a roller mixer.
A sample of the supernatant was then taken, filtered using standard techniques (e.g. a syringe filter), and analysed by high-performance liquid chromatography (HPLC) to determine the concentration uric acid/MSU present in solution.
All samples were analysed using a HPLC system equipped with a variable wavelength UV detector and a reversed phase column (5 μm ODS2, 4.6 mm×150 mm, Waters Spherisorb). The mobile phase was 35 mM sodium acetate in water with pH adjusted to 5.0 using acetic acid. The flow rate was set at 1 mL/min and UV detection at a wavelength of 292 nm. Sample injection volume was 50.0 μL and all operations were carried out at 25° C. Standard solutions of MSU were made up in the range of 15-250 μg/mL and analysed as above.

The nature of series [2]: Solubility enhancement of MSU crystals in phosphate buffered saline (Examples 2A, 2B). As to the method:
A phosphate buffered saline diluent was prepared by dissolving 8.2 g of NaCl and 0.68 g of KH2PO4 in 500 mL of deionised water in a 1 L flask. An NaOH solution was prepared by dissolving 0.399 g of NaOH in 100 mL of deionised water. 39.1 mL of the 0.1 M NaOH solution was then added to the 1 L flask and the volume was made up to 1 L with deionised water. The pH was adjusted to 7.4.
Approximately 5 mg of monosodium urate crystals was then suspended in 4.75 mL of the phosphate buffered saline diluent. A 0.25 mL amount of a solubility enhancer was then added to the suspension of monosodium urate crystals. […] In the case of the solubility enhancer being a mix of components, equal portions by volume of each component was added, unless indicated otherwise. This was then stirred for about 16 hours.
A sample of the supernatant was then taken, filtered using standard techniques (e.g. a syringe filter), and analysed by high-performance liquid chromatography (HPLC) to determine the concentration of uric acid/urate present in solution.

Assay in series [3]: as above
The settings on record: Table 3.

The mark [4] stands for this setting: Table 2, 5% by volume solubility enhancer in PBS pH 7.4, control = 100%.
The mark [5] stands for this setting: Table 3, 5% by volume solubility enhancer in PBS.
Setting [6] is: 0.1% solubility enhancer in PBS.

For Span 85, the Concentration of urate in series [1] is 57 µg/mL.

In the case of `OCc1ccccc1` [Benzyl alcohol], the “% vs control” value in series [2] (setting [4]) is 263%; in series [3] (0.5% solubility enhancer in PBS), 152%; in series [3] (2% solubility enhancer in PBS), 170%; in series [3] (3% solubility enhancer in PBS), 197%; in series [3] (4% solubility enhancer in PBS), 227%.

Consider `OCCO` [Ethylene glycol], for which the “% vs control” value in series [2] (setting [4]) stood at 112%.

With `CN1CCCC1=O` [N-methylpyrrolidone], the “% vs control” value in series [1] is listed as 200%.

On to `O=C(O)/C=C/C(=O)O` [Fumaric acid], for which, in series [1], the “% vs control” value is listed as 151%.

In the case of `CCCCCCCC/C=C\CCCCCCCC(=O)O` [Oleic acid], the “% vs control” value is listed as 118% in series [3] (1% solubility enhancer in PBS) and 119% in series [3] (2% solubility enhancer in PBS).

`O=C(O)c1ccc(O)cc1` [4-hydroxybenzoic acid]: the “% vs control” value in series [2] (setting [5]) came to 241%; in series [3] (0.05% solubility enhancer in PBS) it was 160%; in series [3] (setting [6]), 193%; in series [3] (1% solubility enhancer in PBS), 205%.

In the case of `OCc1ccc(O)cc1` [4-hydroxybenzyl alcohol], the “% vs control” value in series [2] (setting [5]) turned out to be 190%; in series [3] (1% solubility enhancer in PBS) it was 151%.

Consider Sorbitan monooleate, for which, in series [1], the Concentration of urate is 65 µg/mL and the “% vs control” value stood at 151%.

As to `OCC(O)CO` [Glycerol], the “% vs control” value in series [1] is given as 149%; in series [2] (setting [4]) it was 114%.

On to `CC(O)CO` (centres unmarked) [Propylene glycol], for which the “% vs control” value in series [1] and in series [2] (setting [4]) was 114% each time.

For `O=C(O)c1ccccc1` [Benzoic acid], the results for the “% vs control” value in series [2] (setting [5]), in series [3] (setting [6]) and in series [3] (1% solubility enhancer in PBS) were 189%, 147% and 159%, respectively.

As to `CCCCCCCC/C=C\CCCCCCCC(=O)OC` [Methyl oleate], in series [2] (setting [4]), the “% vs control” value stood at 119%.

On to `O=C(O)c1ccccc1O` [Salicylic acid], for which the “% vs control” value in series [3] (setting [6]) amounted to 281%.

With `CC(=O)OCC(COC(C)=O)OC(C)=O` [Triacetin], the entries for the “% vs control” value in series [2] (setting [4]), in series [2] (setting [5]) and in series [3] (4% solubility enhancer in PBS) were 165%, 113% and 111%, respectively.

As to `CC(=O)OC/C=C(\C)CCC=C(C)C` [Geranyl acetate], the “% vs control” value in series [1] is recorded as 209%.
